Data as given in US9175044B2, “Derivatives of glyco-CF2-serine and glyco-CF2-threonine” (TFCHEM, priority 2010, dated 2015).

Key:
[1] = molecular target: T1, α-galactosidase (Coffea arabica, UniProt Q42656); assay: Enzymatic stability of α-Gal-CF2-Ser pseudo-glycosidic bond with α-galactosidase; type: in vitro ADME; details: 24 h at 37° C.; for hydrolysis after incubation with α-galactosidase, mass spectra with vs without enzyme: ammonium acetate buffer 10 mM pH 7, α-galactosidase 2.25 U, MS; for cleavage by α-galactosidase, F-NMR analysis: ammonium acetate buffer pH 7, α-galactosidase 2.25 U
T1 construct: purchased Sigma G8507
Procedure: The enzymatic stability has been performed with compounds Cd1, Cd2, Dd1 and Dd2 according to the invention and compound F was used as a reference compound to control the efficacy of the α-galactosidase. All the compounds have been treated with α-galactosidase. The stability of compounds Cd1, Cd2, Dd1 and Dd2 has been assessed by MS analysis after incubation with α-galactosidase. The procedure has been adapted from Maljaars et al. J. Comb. Chem. 2006, 8, 812-819.
Test compound Cd1 ([…], 1.8 mg) in 0.75 mL ammonium acetate buffer (10 mM, pH 7) was kept 24 h at 37° C. in the presence and absence of α-galactosidase (2.25 U, 41 μL of a 3.7 mg·mL^−1 suspension in ammonium sulphate (G8507 sigma, 14.7 U/mg)). 300 μL of the samples were filtered through a 3-kDa-cutoff centrifugal filter (Millipore) and the filter was washed with H2O (2×300 μL). The resultant solutions were diluted in water/methanol 1:1 (3 μL in 1 mL);
Test compound Cd2 ([…], 5.3 mg) has been treated in the presence and absence of α-galactosidase following the same process.
The samples of compound Cd1 and Cd2 in presence of α-galactosidase have been analyzed by mass spectrometry and their spectra compared to the mass spectra of compound Cd1 and Cd2 in absence of α-galactosidase.
The same procedure was applied to compound Dd1 ([…], 2.6 mg) and Dd2 ([…], 2.6 mg).
In parallel, p-nitrophenyl-α-galactoside (compound F, 6 μmol, 1.8 mg) in 0.75 mL of ammonium acetate buffer (10 mM, pH 7) was kept 24 h at 37° C. in the presence and absence of α-galactosidase 2.25 U, 41 μL of a 3.7 mg·mL^−1 suspension in ammonium sulphate ((G8507 sigma) 14.7 U/mg). The OD of the two samples was measured at 420 nm to verify that the α-galactosidase is working and that degradation occurs on compound F (OD420 with α-galactosidase=1.6303/OD420 without α-galactosidase=0.0124).

[2] = molecular target: T2, β-galactosidase (Escherichia coli, UniProt P00722); type: in vitro ADME; details: 24 h at 37° C.; for hydrolysis after incubation with β-galactosidase, mass spectra with vs without enzyme: ammonium acetate buffer 10 mM pH 7, β-galactosidase 4.5 U, MS (ESI)
T2 construct: purchased Sigma 48275
Procedure: The enzymatic stability has been performed with compound Ad1 and Ad2 according to the invention and compound B used as a reference compound to control the efficacy of the β-galactosidase. Both compounds have been treated with β-galactosidase. The stability of compound Ad1 and Ad2 has been assessed by mass spectrum (MS) analysis after incubation with β-galactosidase. The samples have been injected and ionized by electrospray (ES) (in positive and negative mode). The procedure has been adapted from Maljaars et al. J. Comb. Chem. 2006, 8, 812-819.
Test compound Ad1 (12 μmol, 5.3 mg) in 1.5 mL ammonium acetate buffer (10 mM, pH 7) was kept 24 h at 37° C. in the presence and absence of β-galactosidase (4.5 U, 32 μL of a 1 mg·mL^−1 solution in ammonium acetate buffer, (48275 sigma, 140 U per mg)). 300 μL of the sample was filtered through a 3-kDa-cutoff centrifugal filter (Millipore), and the filter was washed with H2O (2×300 μL). The obtained solutions were diluted in water/methanol 1:1 (3 μL in 1 mL).
Test compound Ad2 (12 μmol, 5.3 mg) has been treated in the presence and absence of β-galactosidase following the same process.
These samples of compound Ad1 and Ad2 in presence of β-galactosidase have been submitted to mass spectra and compared to the mass spectra of compound Ad1 and Ad2 in absence of β-galactosidase.
The two samples were also analyzed by F-NMR to confirm that the test compound Ad1 and Ad2 were not cleaved by the β-galactosidase.
In parallel, p-nitrophenyl-β-galactoside (compound B, 12 μmol, 3.6 mg) in 1.5 mL ammonium acetate buffer (10 mM, pH 7) was kept 24 h at 37° C. in the presence and absence of β-galactosidase (4.5 U, 32 μL of a 1 mg·mL^−1 solution in ammonium acetate buffer (48275 sigma, 140 U per mg)).
The optical density (OD) of the two samples was measured at 420 nm to verify that the β-galactosidase is working and that degradation occurs on compound B (OD420 with β-galactosidase=1.5786/OD420 without β-galactosidase=0.0465).

[3] = system: neonatal human skin fibroblasts (Cell line: CCD-27SK); assay: Preservation of neonatal skin fibroblasts under starvation conditions (Trypan blue viability assay); type: cell-based; details: for effect on skin fibroblasts under unfavorable conditions for growth: 5 mg/ml in starvation medium, 7 days
Procedure: • The neonatal human skin fibroblasts (Cell line: CCD-27SK, ATCC number CRL-1475) were grown with DMEM medium supplemented with Fetal Bovine Serum 10% final, antibiotics (Penicillin/Streptomycin) 1% final and Amphotericin B 0.1% final. • Fibroblasts were grown in 75 cm^2 culture flask to 80% confluence, in 37° C. and 10% CO2 incubator. The medium was changed every two days by 37° C. preheated fresh medium. Starvation Medium • This medium was composed of 45% subculture medium without Fetal Bovine Serum mixed with 55% of Phosphate Buffer Saline 1× containing EDTA (final concentration of 0.45 mM). This was referred to as serum free or starvation medium. Product Preparation • The compounds 13(b)αd1 and 13(b)αd2 (M=479.9 g/mol) were diluted in starvation medium to 5 mg/ml final and pH was adjusted at 7.4 by addition of NaOH 1N. […] So, only the dead cells are blue at microscopic observation. • For sampling, 110 μl of Trypan Blue (SIGMA T8154) was added to 110 μl of trypsinated cell suspension of matching well for counting. • 200 μl of the trypan blue/cell mixture are dropped to a hemacytometer. Cells are counting by using a Neubauer-counting chamber. The unstained (viable) and stained (nonviable) cells are counted separately on 9 area of a large square (1 mm^2) and added to obtain the total number of cells per sample. An average of three counts was used to calculate the viability percentage as: [number of viable cells/total number of cells]*100 • The cell viability percentages from cultures under starvation conditions were compared with control culture for several days after their addition (D0, D3, D4, D5, D6, D7). Results

[4] = ammonium acetate buffer pH 7, β-galactosidase 4.5 U

T2 sequence (P00722 2-1024): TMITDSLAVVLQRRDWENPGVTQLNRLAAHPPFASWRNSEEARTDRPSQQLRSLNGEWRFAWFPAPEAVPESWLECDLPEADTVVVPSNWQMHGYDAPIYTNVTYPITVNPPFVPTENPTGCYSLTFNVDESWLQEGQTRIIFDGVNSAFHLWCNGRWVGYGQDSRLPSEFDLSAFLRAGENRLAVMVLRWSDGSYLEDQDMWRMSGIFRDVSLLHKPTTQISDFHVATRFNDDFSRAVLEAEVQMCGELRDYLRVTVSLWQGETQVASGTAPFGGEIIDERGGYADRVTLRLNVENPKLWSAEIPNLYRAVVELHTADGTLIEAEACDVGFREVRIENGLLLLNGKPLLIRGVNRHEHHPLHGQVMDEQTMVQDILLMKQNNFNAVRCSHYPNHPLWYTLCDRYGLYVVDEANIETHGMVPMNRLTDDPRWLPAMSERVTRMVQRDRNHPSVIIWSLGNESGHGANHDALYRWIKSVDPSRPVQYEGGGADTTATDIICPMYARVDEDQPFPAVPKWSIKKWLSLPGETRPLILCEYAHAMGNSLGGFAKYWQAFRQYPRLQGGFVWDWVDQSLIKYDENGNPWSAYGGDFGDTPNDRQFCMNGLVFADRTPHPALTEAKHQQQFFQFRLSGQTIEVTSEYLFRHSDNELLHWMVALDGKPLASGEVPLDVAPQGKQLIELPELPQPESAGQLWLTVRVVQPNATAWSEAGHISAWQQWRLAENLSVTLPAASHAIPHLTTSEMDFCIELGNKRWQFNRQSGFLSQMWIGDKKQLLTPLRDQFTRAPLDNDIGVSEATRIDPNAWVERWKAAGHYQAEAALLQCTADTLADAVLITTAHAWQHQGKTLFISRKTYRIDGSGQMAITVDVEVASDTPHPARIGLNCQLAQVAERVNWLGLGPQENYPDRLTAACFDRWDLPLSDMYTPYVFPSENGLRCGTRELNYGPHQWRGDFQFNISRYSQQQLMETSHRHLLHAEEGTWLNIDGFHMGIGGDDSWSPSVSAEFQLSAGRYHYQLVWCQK
T1 sequence (Q42656 16-378): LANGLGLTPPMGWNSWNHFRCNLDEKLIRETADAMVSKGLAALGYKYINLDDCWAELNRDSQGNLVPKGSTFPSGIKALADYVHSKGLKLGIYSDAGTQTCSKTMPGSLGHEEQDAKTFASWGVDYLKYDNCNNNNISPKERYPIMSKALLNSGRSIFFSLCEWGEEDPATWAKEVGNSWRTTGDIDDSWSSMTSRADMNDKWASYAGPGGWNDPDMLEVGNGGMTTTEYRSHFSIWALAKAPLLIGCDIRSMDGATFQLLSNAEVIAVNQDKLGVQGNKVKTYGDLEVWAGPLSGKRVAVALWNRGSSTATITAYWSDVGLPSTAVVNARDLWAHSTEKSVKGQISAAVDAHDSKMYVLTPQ

SMILES	hydrolysis after incubation with α-galactosidase, mass spectra with vs without enzyme [1]	cleavage by α-galactosidase, F-NMR analysis [1]	further results
C[C@H](NC(=O)[C@H](C)NC(=O)C(N)CC(F)(F)[C@H]1O[C@H](CO)[C@H](O)[C@H](O)[C@H]1O)C(=O)O (single isomer, unassigned) [Dd2]	no hydrolysis occurs	not cleaved	
O=[N+]([O-])c1ccc(O[C@@H]2O[C@H](CO)[C@H](O)[C@H](O)[C@H]2O)cc1 [B, p-nitrophenyl-β-galactoside, reference compound]			visual observation in the presence of β-galactosidase (decomposition) [2, 4]: yellow coloration was observed
C[C@H](NC(=O)[C@H](C)NC(=O)C(N)CC(F)(F)[C@H]1O[C@H](CO)[C@H](O)[C@H](O)[C@H]1O)C(=O)O (single isomer, unassigned) [Dd1]	no hydrolysis occurs	not cleaved	
C[C@H](NC(=O)[C@H](C)NC(=O)C(N)CC(F)(F)[C@@H]1O[C@H](CO)[C@H](O)[C@H](O)[C@H]1O)C(=O)O (stereo partly shown) [Ad2]			hydrolysis after incubation with β-galactosidase, mass spectra with vs without enzyme [2]: no hydrolysis occurs; cleavage by β-galactosidase, F-NMR analysis [2, 4]: not cleaved
C[C@H](NC(=O)[C@H](C)NC(=O)C(N)CC(F)(F)[C@@H]1O[C@H](CO)[C@H](O)[C@H](O)[C@H]1O)C(=O)O (stereo partly shown) [Ad1]			hydrolysis after incubation with β-galactosidase, mass spectra with vs without enzyme [2]: no hydrolysis occurs; cleavage by β-galactosidase, F-NMR analysis [2, 4]: not cleaved
NC(CC(F)(F)[C@H]1O[C@H](CO)[C@H](O)[C@H](O)[C@H]1O)C(=O)O (stereo partly shown) [Cd1]	no hydrolysis occurs	not cleaved	
C[C@H](NC(=O)[C@H](C)NC(=O)C(N)CC(F)(F)[C@H]1O[C@H](CO)[C@H](O)[C@H](O)[C@H]1O)C(=O)O (single isomer, unassigned) [13(b)αd2]			effect on skin fibroblasts under unfavorable conditions for growth [3]: preservative effect
C[C@H](NC(=O)[C@H](C)NC(=O)C(N)CC(F)(F)[C@H]1O[C@H](CO)[C@H](O)[C@H](O)[C@H]1O)C(=O)O (single isomer, unassigned) [13(b)αd1]			effect on skin fibroblasts under unfavorable conditions for growth [3]: preservative effect; viability at 5000 µg/mL ([3]; Homo sapiens, CCD-27Sk, 168 h, 5 mg/ml in starvation (serum free) medium, up to 7 days of incubation, Trypan blue exclusion, read-out: fibroblast viability): ~95%
NC(CC(F)(F)[C@H]1O[C@H](CO)[C@H](O)[C@H](O)[C@H]1O)C(=O)O (stereo partly shown) [Cd2]	no hydrolysis occurs	not cleaved	
